Reference: ChEMBL document CHEMBL4002623, “Synthesis and in vitro activity of dicationic indolyl diphenyl ethers as novel potent antibiotic agents against drug-resistant bacteria” (Bioorg Med Chem Lett, 2017)
Converted amounts (≈) assume the structure as drawn.

Columns and labels:
Proteus mirabilis = experiment: Antibacterial activity against Proteus mirabilis 09-1 by agar dilution method; assay type: functional
Klebsiella aerogenes = experiment: Antibacterial activity against Enterobacter aerogenes 45102 by agar dilution method; assay type: functional
Enterococcus faecium [1] = experiment: Antibacterial activity against vancomycin-resistant Enterococcus faecium 05-8 by agar dilution method; assay type: functional
Staphylococcus aureus [2] = experiment: Antibacterial activity against methicillin-resistant Staphylococcus aureus 09-13 by agar dilution method; assay type: functional
[3] = test system: Staphylococcus epidermidis; experiment: Antibacterial activity against methicillin-resistant Staphylococcus epidermidis 09-3 by agar dilution method; assay type: functional
Pseudomonas aeruginosa [4] = experiment: Antibacterial activity against Pseudomonas aeruginosa 09-14 by agar dilution method; assay type: functional
Escherichia coli [5] = experiment: Antibacterial activity against extended-spectrum beta-lactamase-positive Escherichia coli 09-1 by agar dilution method; assay type: functional
Pseudomonas aeruginosa [6] = experiment: Antibacterial activity against Pseudomonas aeruginosa ATCC 27853 by agar dilution method; assay type: functional
Klebsiella pneumoniae [7] = experiment: Antibacterial activity against extended-spectrum beta-lactamase-negative Klebsiella pneumoniae 09-8 by agar dilution method; assay type: functional
Salmonella typhi = experiment: Antibacterial activity against Salmonella typhi H901 by agar dilution method; assay type: functional, Salmonella enterica subsp. enterica serovar Typhi; settings: Salmonella enterica
Staphylococcus aureus [8] = experiment: Antibacterial activity against methicillin-sensitive Staphylococcus aureus 09-6 by agar dilution method; assay type: functional
Enterobacter cloacae = experiment: Antibacterial activity against Enterobacter cloacae 45301 by agar dilution method; assay type: functional
Enterococcus faecium [9] = experiment: Antibacterial activity against vancomycin-resistant Enterococcus faecium ATCC 700221 by agar dilution method; assay type: functional
Staphylococcus aureus [10] = experiment: Antibacterial activity against methicillin-resistant Staphylococcus aureus ATCC 33591 by agar dilution method; assay type: functional
Enterococcus faecalis [11] = experiment: Antibacterial activity against vancomycin-sensitive Enterococcus faecalis ATCC 29212 by agar dilution method; assay type: functional
Serratia marcescens = experiment: Antibacterial activity against Serratia marcescens 41002 by agar dilution method; assay type: functional
Citrobacter freundii = experiment: Antibacterial activity against Citrobacter freundii ATCC 43864 by agar dilution method; assay type: functional
Escherichia coli [12] = experiment: Antibacterial activity against extended-spectrum beta-lactamase-negative Escherichia coli ATCC 25922 by agar dilution method; assay type: functional
Pseudomonas aeruginosa [13] = experiment: Antibacterial activity against Pseudomonas aeruginosa PAO1 by agar dilution method; assay type: functional
Enterococcus faecalis [14] = experiment: Antibacterial activity against vancomycin-resistant Enterococcus faecalis 09-9 by agar dilution method; assay type: functional
Morganella morganii = experiment: Antibacterial activity against Morganella morganii ATCC 25830 by agar dilution method; assay type: functional
Klebsiella pneumoniae [15] = experiment: Antibacterial activity against Klebsiella pneumoniae ATCC BAA-2146 expressing NDM-1 by agar dilution method; assay type: functional
Enterococcus faecalis [16] = experiment: Antibacterial activity against vancomycin-resistant Enterococcus faecalis ATCC 51299 by agar dilution method; assay type: functional
Staphylococcus aureus [17] = experiment: Antibacterial activity against methicillin-sensitive Staphylococcus aureus ATCC 29213 by agar dilution method; assay type: functional
Klebsiella pneumoniae [18] = experiment: Antibacterial activity against extended-spectrum beta-lactamase-negative Klebsiella pneumoniae 7 by agar dilution method; assay type: functional
Escherichia coli [19] = experiment: Antibacterial activity against extended-spectrum beta-lactamase-negative Escherichia coli 1515 by agar dilution method; assay type: functional
[20] = test system: Acinetobacter calcoaceticus; experiment: Antibacterial activity against Acinetobacter calcoaceticus ATCC 19606 by agar dilution method; assay type: functional
Enterococcus faecalis [21] = experiment: Antibacterial activity against vancomycin-sensitive Enterococcus faecalis 09-8 by agar dilution method; assay type: functional
Klebsiella pneumoniae [22] = experiment: Antibacterial activity against extended-spectrum beta-lactamase-positive Klebsiella pneumoniae ATCC 700603 by agar dilution method; assay type: functional
Enterococcus faecium [23] = experiment: Antibacterial activity against vancomycin-sensitive Enterococcus faecium 09-10 by agar dilution method; assay type: functional
Proteus vulgaris = experiment: Antibacterial activity against Proteus vulgaris ATCC 29905 by agar dilution method; assay type: functional
[24] = test system: Staphylococcus epidermidis; experiment: Antibacterial activity against methicillin-sensitive Staphylococcus epidermidis ATCC 12228 by agar dilution method; assay type: functional
Escherichia coli [25] = experiment: Antibacterial activity against extended-spectrum beta-lactamase-negative Escherichia coli 09-20 by agar dilution method; assay type: functional
[26] = test system: Staphylococcus epidermidis; experiment: Antibacterial activity against methicillin-sensitive Staphylococcus epidermidis 09-9 by agar dilution method; assay type: functional
[27] = Cytotoxicity against HEK293T cells after 48 hrs by MTS assay; assay type: cell-based, HEK-293T; settings: human
Klebsiella pneumoniae [28] = experiment: Antibacterial activity against extended-spectrum beta-lactamase-positive Klebsiella pneumoniae 09-25 by agar dilution method; assay type: functional
Staphylococcus aureus [29] = experiment: Antibacterial activity against methicillin-sensitive Staphylococcus aureus 15 by agar dilution method; assay type: functional
Providencia rettgeri = experiment: Antibacterial activity against Providencia rettgeri ATCC 31052 by agar dilution method; assay type: functional

| Structure (SMILES) | MIC (Proteus mirabilis) [µg/mL] | MIC (Klebsiella aerogenes) [µg/mL] | MIC (Enterococcus faecium [1]) [µg/mL] | MIC (Staphylococcus aureus [2]) [µg/mL] | MIC [3] [µg/mL] | MIC (Pseudomonas aeruginosa [4]) [µg/mL] | MIC (Escherichia coli [5]) [µg/mL] | MIC (Pseudomonas aeruginosa [6]) [µg/mL] | MIC (Klebsiella pneumoniae [7]) [µg/mL] | MIC (Salmonella typhi) [µg/mL] | MIC (Staphylococcus aureus [8]) [µg/mL] | MIC (Enterobacter cloacae) [µg/mL] | MIC (Enterococcus faecium [9]) [µg/mL] | MIC (Staphylococcus aureus [10]) [µg/mL] | MIC (Enterococcus faecalis [11]) [µg/mL] | MIC (Serratia marcescens) [µg/mL] | MIC (Citrobacter freundii) [µg/mL] | MIC (Escherichia coli [12]) [µg/mL] | MIC (Pseudomonas aeruginosa [13]) [µg/mL] | MIC (Enterococcus faecalis [14]) [µg/mL] | further results |
| --- | --- | --- | --- | --- | --- | --- | --- | --- | --- | --- | --- | --- | --- | --- | --- | --- | --- | --- | --- | --- | --- |
| N=C(c1ccc2cc(-c3ccc(Oc4ccc(-c5cc6ccc(C(=N)N7CCCCC7)cc6[nH]5)cc4)cc3)[nH]c2c1)N1CCCCC1 | > 128 | > 128 | 32 (≈ 51.5 µM) | 16 (≈ 25.8 µM) | 8 (≈ 12.9 µM) | > 128 | > 128 | > 128 | > 128 | > 128 | 16 (≈ 25.8 µM) | > 128 | 16 to 32 (≈ 25.8 to 51.5 µM) | 16 (≈ 25.8 µM) | 32 (≈ 51.5 µM) | > 128 | > 128 | > 128 | > 128 | 32 (≈ 51.5 µM) | MIC (Morganella morganii): > 128 µg/mL; MIC (Klebsiella pneumoniae [15]): > 128 µg/mL; MIC (Enterococcus faecalis [16]): 64 µg/mL (≈ 103 µM); MIC (Staphylococcus aureus [17]): 16 µg/mL (≈ 25.8 µM); MIC (Klebsiella pneumoniae [18]): > 128 µg/mL; MIC (Escherichia coli [19]): > 128 µg/mL; MIC [20]: > 128 µg/mL; MIC (Enterococcus faecalis [21]): 32 µg/mL (≈ 51.5 µM); MIC (Klebsiella pneumoniae [22]): > 128 µg/mL; MIC (Enterococcus faecium [23]): 16 to 32 µg/mL (≈ 25.8 to 51.5 µM); MIC (Proteus vulgaris): > 128 µg/mL; MIC [24]: 8 µg/mL (≈ 12.9 µM); MIC (Escherichia coli [25]): > 128 µg/mL; MIC [26]: 8 µg/mL (≈ 12.9 µM); CC50 at 48 h [27]: 2.5 µg/mL (≈ 4.03 µM); MIC (Klebsiella pneumoniae [28]): > 128 µg/mL; MIC (Staphylococcus aureus [29]): 16 µg/mL (≈ 25.8 µM); MIC (Providencia rettgeri): > 128 µg/mL |
| N=C(c1ccc2cc(-c3ccc(Oc4ccc(-c5cc6ccc(C(=N)N7CCC(N8CCCC8)CC7)cc6[nH]5)cc4)cc3)[nH]c2c1)N1CCC(N2CCCC2)CC1 | > 128 | 128 (≈ 169 µM) | 8 (≈ 10.5 µM) | 8 (≈ 10.5 µM) | 8 (≈ 10.5 µM) | > 128 | 64 (≈ 84.3 µM) | > 128 | 128 (≈ 169 µM) | 32 (≈ 42.2 µM) | 8 (≈ 10.5 µM) | 64 (≈ 84.3 µM) | 8 (≈ 10.5 µM) | 8 (≈ 10.5 µM) | 8 (≈ 10.5 µM) | > 128 | > 128 | 32 (≈ 42.2 µM) | > 128 | 16 (≈ 21.1 µM) | MIC (Morganella morganii): 128 µg/mL (≈ 169 µM); MIC (Klebsiella pneumoniae [15]): 128 µg/mL (≈ 169 µM); MIC (Enterococcus faecalis [16]): 8 µg/mL (≈ 10.5 µM); MIC (Staphylococcus aureus [17]): 8 µg/mL (≈ 10.5 µM); MIC (Klebsiella pneumoniae [18]): 128 µg/mL (≈ 169 µM); MIC (Escherichia coli [19]): 64 µg/mL (≈ 84.3 µM); MIC [20]: > 128 µg/mL; MIC (Enterococcus faecalis [21]): 8 µg/mL (≈ 10.5 µM); MIC (Klebsiella pneumoniae [22]): > 128 µg/mL; MIC (Enterococcus faecium [23]): 8 µg/mL (≈ 10.5 µM); MIC (Proteus vulgaris): > 128 µg/mL; MIC [24]: 3 to 8 µg/mL (≈ 3.95 to 10.5 µM); MIC (Escherichia coli [25]): 32 µg/mL (≈ 42.2 µM); MIC [26]: 8 µg/mL (≈ 10.5 µM); CC50 at 48 h [27]: 1.1 µg/mL (≈ 1.45 µM); MIC (Klebsiella pneumoniae [28]): 128 µg/mL (≈ 169 µM); MIC (Staphylococcus aureus [29]): 8 µg/mL (≈ 10.5 µM); MIC (Providencia rettgeri): > 128 µg/mL |
| CCC(C)NC(=N)c1ccc2cc(-c3ccc(Oc4ccc(-c5cc6ccc(C(=N)NC(C)CC)cc6[nH]5)cc4)cc3)[nH]c2c1 (centres undefined) | 64 (≈ 107 µM) | 32 (≈ 53.6 µM) | 2 (≈ 3.35 µM) | 1 (≈ 1.68 µM) | 1 (≈ 1.68 µM) | 64 (≈ 107 µM) | 32 (≈ 53.6 µM) | 32 (≈ 53.6 µM) | 16 (≈ 26.8 µM) | 16 (≈ 26.8 µM) | 2 (≈ 3.35 µM) | 32 (≈ 53.6 µM) | 1 (≈ 1.68 µM) | 2 (≈ 3.35 µM) | 2 (≈ 3.35 µM) | 64 (≈ 107 µM) | 32 (≈ 53.6 µM) | 16 (≈ 26.8 µM) | 64 (≈ 107 µM) | 8 (≈ 13.4 µM) | MIC (Morganella morganii): 16 µg/mL (≈ 26.8 µM); MIC (Klebsiella pneumoniae [15]): 32 µg/mL (≈ 53.6 µM); MIC (Enterococcus faecalis [16]): 2 µg/mL (≈ 3.35 µM); MIC (Staphylococcus aureus [17]): 2 µg/mL (≈ 3.35 µM); MIC (Klebsiella pneumoniae [18]): 64 µg/mL (≈ 107 µM); MIC (Escherichia coli [19]): 16 µg/mL (≈ 26.8 µM); MIC [20]: 64 µg/mL (≈ 107 µM); MIC (Enterococcus faecalis [21]): 2 µg/mL (≈ 3.35 µM); MIC (Klebsiella pneumoniae [22]): 64 µg/mL (≈ 107 µM); MIC (Enterococcus faecium [23]): 8 µg/mL (≈ 13.4 µM); MIC (Proteus vulgaris): 32 µg/mL (≈ 53.6 µM); MIC [24]: 0.5 µg/mL (≈ 0.838 µM); MIC (Escherichia coli [25]): 32 µg/mL (≈ 53.6 µM); MIC [26]: 2 µg/mL (≈ 3.35 µM); CC50 at 48 h [27]: 40.4 µg/mL (≈ 67.7 µM); MIC (Klebsiella pneumoniae [28]): 32 µg/mL (≈ 53.6 µM); MIC (Staphylococcus aureus [29]): 2 µg/mL (≈ 3.35 µM); MIC (Providencia rettgeri): 64 µg/mL (≈ 107 µM) |
